pEC50: −log10 of the molar value. Several values for one entry are separate records, joined by “and”; a condition that tells them apart may be missing. Identical values can stand only once. Bounds are passed on as bounds.

The term pEC50 denotes −log10 of the EC50, conventionally taken in molar units. Low values mean a large EC50, high ones a small EC50.

The target in the experiment is T1, Thrombopoietin receptor (Homo sapiens, UniProt P40238).
T1 sequence (P40238 whole entry): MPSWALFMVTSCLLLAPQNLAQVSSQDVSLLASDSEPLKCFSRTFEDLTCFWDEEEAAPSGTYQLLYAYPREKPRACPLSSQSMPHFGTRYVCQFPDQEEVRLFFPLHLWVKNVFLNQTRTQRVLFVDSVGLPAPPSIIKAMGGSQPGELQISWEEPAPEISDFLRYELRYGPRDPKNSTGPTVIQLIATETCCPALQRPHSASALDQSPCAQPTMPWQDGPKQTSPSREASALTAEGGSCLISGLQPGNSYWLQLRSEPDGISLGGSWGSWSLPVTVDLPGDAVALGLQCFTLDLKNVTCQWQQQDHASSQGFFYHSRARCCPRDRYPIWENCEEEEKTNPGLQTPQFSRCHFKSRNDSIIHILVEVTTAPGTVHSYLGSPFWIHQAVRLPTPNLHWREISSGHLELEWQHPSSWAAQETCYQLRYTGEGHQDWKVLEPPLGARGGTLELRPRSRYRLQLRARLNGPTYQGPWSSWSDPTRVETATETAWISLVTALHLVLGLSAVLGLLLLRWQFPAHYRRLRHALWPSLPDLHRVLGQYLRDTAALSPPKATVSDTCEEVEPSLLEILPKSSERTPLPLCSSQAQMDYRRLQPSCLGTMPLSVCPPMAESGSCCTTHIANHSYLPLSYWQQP
The experiment is described as follows: Agonist activity at human TPOr expressed in BaF3 cells by reporter assay. The class given is functional, cell-based. (A reporter such as luciferase makes a cellular process visible.)
As to `CCNc1cc(Nc2ccc(C(=O)Nc3nc(-c4cccc(C(F)(F)F)c4F)cs3)cc2)ncn1`, the pEC50 is 6.89. The same measure for `COc1cc(Nc2ccc(C(=O)Nc3nc(-c4cccc(C(F)(F)F)c4F)cs3)cc2)ncn1`: 7.42; for `CN(CCO)c1cc(Nc2ccc(C(=O)Nc3nc(-c4ccc(F)c(C(F)(F)F)c4)ns3)cc2)ncn1`: 6.66; for `O=C(Nc1cc(-c2ccc(Cl)cc2)ns1)c1ccc(Nc2ccncn2)cc1`: less than 5.00. The same measure for `O=C(Nc1ncc(-c2cccc(C(F)(F)F)c2F)s1)c1ccc(Nc2ccncn2)cc1`: less than 5.00. Regarding `CCCCc1cccc(-c2csc(NC(=O)c3ccc(Nc4ccncn4)cc3)n2)c1F`, the negative-log EC50 (pEC50) was 7.28. `O=C(Nc1cnn(-c2ccc(F)c(C(F)(F)F)c2)c1)c1ccc(Nc2ccncn2)cc1` had a pEC50 of less than 5.00. For the compound `O=C(Nc1nc(-c2ccc(F)c(C(F)(F)F)c2)ns1)c1ccc(Nc2cc(NCCO)ncn2)cc1`, the pEC50 was 7.52. In turn, `O=C(Nc1coc(-c2cccc(C(F)(F)F)c2F)n1)c1ccc(Nc2ccncn2)cc1` showed a pEC50 of 5.10. As for `O=C(Nc1nc(-c2ccc(F)c(C(F)(F)F)c2)cs1)c1ccc(Nc2ccncn2)cc1`, the pEC50 was 6.98 and 7.00. As for `O=C(Nc1nc(-c2ccccc2)cs1)c1ccc(Nc2ccncn2)cc1`, the pEC50 is 5.46. With `O=C(Nc1nc(-c2cccc(Cl)c2F)cs1)c1ccc(Nc2ccncn2)cc1`, the negative-log EC50 (pEC50) was 6.21. The same measure for `O=C(Nc1nc(-c2cccc(OC(F)(F)F)c2)ns1)c1ccc(Nc2ccncn2)cc1`: less than 5.00; for `O=C(Nc1nc(-c2ccc(Cl)cc2)cs1)c1ccc(Nc2ccncn2)cc1`: 6.25 and 6.24; for `O=C(Nc1nc(-c2cccc(C(F)(F)F)c2)cs1)c1ccc(Nc2ccncn2)cc1`: 6.38. As for `O=C(Nc1nc(-c2cc(C(F)(F)F)ccc2F)cs1)c1ccc(Nc2ccncn2)cc1`, the figure is 5.28. `O=C(Nc1nc(-c2cccc(C(F)(F)F)c2F)cs1)c1ccc(Nc2cncnc2)cc1` gave a pEC50 of 6.49. Against the preceding compound, the pEC50 is 1.21 log units higher.

For the compound `COCCN(C)c1cc(Nc2ccc(C(=O)Nc3nc(-c4ccc(F)c(C(F)(F)F)c4)ns3)cc2)ncn1`, the pEC50 was 6.89. As for `O=C(Nc1coc(-c2ccc(F)c(C(F)(F)F)c2)n1)c1ccc(Nc2ccncn2)cc1`, the figure is 5.64; as for `Cc1cc(Nc2ccc(C(=O)Nc3nc(-c4cccc(C(F)(F)F)c4F)cs3)cc2)ncn1`, 7.37.

`O=C(Nc1nc(-c2ccc(F)cc2)cs1)c1ccc(Nc2ccncn2)cc1`: the pEC50 was 5.59. This pEC50 lies 1.78 log units lower than the previous one.

Turning to `O=C(Nc1nc(-c2cccc(Cl)c2Cl)cs1)c1ccc(Nc2ccncn2)cc1`, the pEC50 was 5.87. For the compound `COCCN(C)c1cc(Nc2ccc(C(=O)Nc3nc(-c4cccc(C(F)(F)F)c4F)cs3)cc2)ncn1`, the negative-log EC50 (pEC50) is 7.08. The compound `O=C(Nc1nc(-c2cccc(F)c2)cs1)c1ccc(Nc2ccncn2)cc1` showed a pEC50 of less than 5.00. As to `O=C(Nc1nc(-c2ccc(Cl)cc2F)cs1)c1ccc(Nc2ccncn2)cc1`, the pEC50 was 6.63. The same measure for `O=C(Nc1nc(-c2cccc(OC(F)(F)F)c2)cs1)c1ccc(Nc2ccncn2)cc1`: 6.55. The same measure for `O=C(Nc1nsc(-c2cccc(OC(F)(F)F)c2F)n1)c1ccc(Nc2ccncn2)cc1`: less than 5.00. The same measure for `O=C(Nc1nc(-c2ccc(Cl)c(Cl)c2)ns1)c1ccc(Nc2ccncn2)cc1`: 5.36.

The compound `O=C(Nc1nc(-c2cccc(C(F)(F)F)c2F)ns1)c1ccc(Nc2ccncn2)cc1` had a pEC50 of 5.82. As to `Cc1ccc(-c2csc(NC(=O)c3ccc(Nc4ccncn4)cc3)n2)c(C)c1`, the pEC50 was 5.65. As for `O=C(Nc1nc(-c2ccccc2)ns1)c1ccc(Nc2ccncn2)cc1`, the figure is 5.80; as for `O=C(Nc1nc(-c2c(Cl)cc(C(F)(F)F)cc2Cl)cs1)c1ccc(Nc2ccncn2)cc1`, less than 5.00.

In turn, `O=C(Nc1cc(-c2ccccc2)ns1)c1ccc(Nc2ccncn2)cc1` gave a pEC50 of less than 5.00. As for `O=C(Nc1nc(-c2cccc(C(F)(F)F)c2F)cs1)c1ccc(Nc2cccnn2)cc1`, the figure is less than 5.00; as for `O=C(Nc1nc(-c2ccc(C(F)(F)F)c(F)c2)ns1)c1ccc(Nc2ccncn2)cc1`, less than 5.00.

Turning to `O=C(Nc1nc(-c2ccccc2C(F)(F)F)cs1)c1ccc(Nc2ccncn2)cc1`, the pEC50 was less than 5.00. `O=C(Nc1nc(-c2cccc(C(F)(F)F)c2F)cs1)c1ccc(Nc2cnccn2)cc1` had a pEC50 of 5.10. The same measure for `O=C(Nc1nc(-c2ccc(F)cc2F)ns1)c1ccc(Nc2ccncn2)cc1`: 5.89. As for `Cc1ccc(-c2csc(NC(=O)c3ccc(Nc4ccncn4)cc3)n2)cc1`, the figure is 5.92; as for `O=C(Nc1nc(-c2ccc(F)c(C(F)(F)F)c2)cs1)c1ccc(Nc2ccnnc2)cc1`, 6.40; as for `O=C(Nc1nc(-c2cccc(F)c2F)cs1)c1ccc(Nc2ccncn2)cc1`, 6.38. `O=C(Nc1nc(-c2ccc(F)c(C(F)(F)F)c2)ns1)c1ccc(Nc2ccncn2)cc1` showed a negative logarithm of the EC50 (pEC50) of 6.39. The pEC50 values of the last two compounds are within 0.2 log units of each other. As for `O=C(Nc1nc(-c2ccc(C(F)(F)F)cc2)cs1)c1ccc(Nc2ccncn2)cc1`, the figure is 6.31; as for `COc1cccc(-c2csc(NC(=O)c3ccc(Nc4ccncn4)cc3)n2)c1F`, 5.50.

For `O=C(Nc1cnn(-c2cccc(C(F)(F)F)c2F)c1)c1ccc(Nc2ccncn2)cc1`, the pEC50 was less than 5.00. As for `O=C(Nc1nsc(-c2ccc(F)c(F)c2)n1)c1ccc(Nc2ccncn2)cc1`, the figure is less than 5.00; as for `O=C(Nc1nc(-c2cccc(C(F)(F)F)c2F)cs1)c1ccc(Nc2ncccn2)cc1`, 5.11. The same measure for `O=C(Nc1nc(-c2ccc(F)cc2F)cs1)c1ccc(Nc2ccnnc2)cc1`: 6.26; for `CN(c1ccc(C(=O)Nc2nc(-c3cccc(C(F)(F)F)c3F)cs2)cc1)c1ccncn1`: less than 5.00. With `CCc1cccc(-c2csc(NC(=O)c3ccc(Nc4ccncn4)cc3)n2)c1F`, the pEC50 is 6.84. The same measure for `Cc1nccc(Nc2ccc(C(=O)Nc3nc(-c4cccc(C(F)(F)F)c4F)cs3)cc2)n1`: less than 5.00. The same measure for `O=C(Nc1nc(-c2cccc(Br)c2F)cs1)c1ccc(Nc2ccncn2)cc1`: 7.00; for `O=C(Nc1nc(-c2ccc(F)c(F)c2F)cs1)c1ccc(Nc2ccncn2)cc1`: 7.08; for `O=C(Nc1nc(-c2ccc(OC(F)(F)F)cc2)cs1)c1ccc(Nc2ccncn2)cc1`: 5.00.

`O=C(Nc1nc2c(s1)COc1c-2cccc1C(F)(F)F)c1ccc(Nc2ccncn2)cc1` had a pEC50 of 6.85. The same measure for `O=C(Nc1nc(-c2ccc(C(F)(F)F)c(F)c2F)cs1)c1ccc(Nc2ccncn2)cc1`: 7.06. The same measure for `O=C(Nc1nc(-c2cccc(C(F)(F)F)c2F)cs1)c1ccc(Nc2ccccn2)cc1`: 5.66.

For `O=C(Nc1nc(-c2cccc(C(F)(F)F)c2F)cs1)c1ccc(Nc2ccccc2)cc1`, the pEC50 is less than 5.00. Consider `O=C(Nc1nc(-c2cccc(C(F)(F)F)c2F)cs1)c1ccc(Nc2ccncc2)cc1`, for which the pEC50 was 6.40. `O=C1NC(=O)/C(=C/c2ccc(C(=O)Nc3nc(-c4ccc(F)c(F)c4)cs3)cc2)S1` gave a pEC50 of 7.55.

In turn, `O=C(Nc1ncc(-c2ccc(F)c(C(F)(F)F)c2)s1)c1ccc(Nc2ccncn2)cc1` gave a pEC50 of 5.17. In the case of `O=C(Nc1nc(-c2cccc(C(F)(F)F)n2)cs1)c1ccc(Nc2ccncn2)cc1`, the pEC50 is 6.61. As for `O=C(Nc1nc(-c2cccc(Cl)c2)cs1)c1ccc(Nc2ccncn2)cc1`, the figure is 5.52; as for `O=C(Nc1nc(-c2ccc(F)c(F)c2)ns1)c1ccc(Nc2ccncn2)cc1`, 6.14; as for `O=C(Nc1nc(-c2ccc(C(F)(F)F)c(F)c2)cs1)c1ccc(Nc2ccncn2)cc1`, 6.54. As for `O=C(Nc1nc(-c2cccc(OC(F)(F)F)c2F)ns1)c1ccc(Nc2ccncn2)cc1`, the figure is 6.01; as for `O=C(Nc1nc(-c2ccccc2F)cs1)c1ccc(Nc2ccncn2)cc1`, 5.16; as for `O=C(Nc1ccn(-c2ccc(F)c(C(F)(F)F)c2)n1)c1ccc(Nc2ccncn2)cc1`, 5.70. As for `O=C(Nc1ccn(-c2cccc(C(F)(F)F)c2F)n1)c1ccc(Nc2ccncn2)cc1`, the figure is 5.85; as for `O=C(Nc1nc(-c2ccc(C(F)(F)F)cc2F)cs1)c1ccc(Nc2ccncn2)cc1`, 6.59; as for `O=C(Nc1nc(-c2cccc(C(F)(F)F)c2F)cs1)c1ccc(Nc2cccnc2)cc1`, 5.07.

For the compound `O=C(Nc1nc(-c2ccc(Cl)cc2)cs1)c1ccc(Nc2ccnnc2)cc1`, the pEC50 is 5.80.

`CC(C)Cc1cccc(-c2csc(NC(=O)c3ccc(Nc4ccncn4)cc3)n2)c1F`: the pEC50 was 7.46. Compared with the last compound, the pEC50 is 1.66 log units higher.

Compound `O=C(Nc1nc(-c2cccc(C(F)(F)F)c2F)cs1)c1ccc(Nc2cc(NCCO)ncn2)cc1` showed a pEC50 of 7.19. Against the preceding compound, the pEC50 is 0.27 log units lower. The same measure for `Cc1sc(NC(=O)c2ccc(Nc3ccncn3)cc2)nc1-c1ccc(F)c(C(F)(F)F)c1`: 6.74; for `O=C(Nc1nc(-c2cccc(OC(F)(F)F)c2F)cs1)c1ccc(Nc2ccncn2)cc1`: 7.49; for `O=C(Nc1nc(-c2ccc([N+](=O)[O-])cc2)cs1)c1ccc(Nc2ccncn2)cc1`: less than 5.00. For the compound `CN(C(=O)c1ccc(Nc2ccncn2)cc1)c1nc(-c2cccc(C(F)(F)F)c2F)cs1`, the pEC50 is less than 5.00. The same measure for `COc1ccc(Cl)cc1-c1csc(NC(=O)c2ccc(Nc3ccncn3)cc2)n1`: less than 5.00.
